Results filed as inconclusive are left out. The source made the active and inactive calls.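 The calls were made as follows: active = score of 100, meaning the red fluorescent reporter moved fully into the nucleus as with estrogen, or estrogen's effect was fully blocked; inactive = score of 0 or 50, meaning partial or no effect.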
Molecular target: Estrogen receptor beta (Homo sapiens) (UniProt Q92731)
Experiment: ERbeta agonist-driven PIP3 reporter relocation, confirmation, orthogonal assay for ERbeta ligand project, imaging, Cos7 cells, ERbeta-GFP, PH-RFP reporter (AID 1218)
Settings: PIP3 translocation imaging, at 10 µM, stronger effect = higher value

Estrogen receptor beta (Homo sapiens), sequence (Q92731 whole entry, looked up): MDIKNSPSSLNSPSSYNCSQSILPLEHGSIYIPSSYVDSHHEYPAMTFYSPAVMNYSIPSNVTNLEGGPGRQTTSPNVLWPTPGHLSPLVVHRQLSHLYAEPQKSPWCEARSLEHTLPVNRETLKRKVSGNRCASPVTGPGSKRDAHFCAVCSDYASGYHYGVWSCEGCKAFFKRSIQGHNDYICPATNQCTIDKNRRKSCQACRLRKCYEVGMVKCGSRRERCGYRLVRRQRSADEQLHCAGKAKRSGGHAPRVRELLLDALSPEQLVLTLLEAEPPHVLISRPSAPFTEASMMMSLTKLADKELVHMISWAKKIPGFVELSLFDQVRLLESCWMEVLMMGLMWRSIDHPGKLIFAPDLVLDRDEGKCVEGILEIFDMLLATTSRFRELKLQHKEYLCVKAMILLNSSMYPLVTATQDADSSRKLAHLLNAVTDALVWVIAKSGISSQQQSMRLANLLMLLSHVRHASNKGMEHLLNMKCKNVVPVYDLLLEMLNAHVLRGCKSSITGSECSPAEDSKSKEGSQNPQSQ

Row | SMILES | response score
1 | Brc1cc2c(cc1C1Nc3ccccc3C3C=CCC31)OCO2 (stereo not drawn) | 0 (inactive)
2 | O=C(O)c1ccc2c(c1)C1C(Cl)C(Sc3ccccc3[N+](=O)[O-])CC1C(c1cccc([N+](=O)[O-])c1)N2 (stereo not drawn) | 0 (inactive)
3 | Cc1cc(-c2nn3c(-c4ccccc4)nnc3s2)c2ccccc2n1 | 100
4 | O=C(O)c1cc(Cl)c2c(c1)[C@@H]1C=CC[C@@H]1[C@H](c1ccc(S(=O)(=O)N3CCOCC3)cc1)N2 | 50 (inactive)
5 | Nc1ncnc2c1ncn2C1CCC(CO)C(O)C1 (stereo not drawn) | 50 (inactive)
6 | Cc1cc(C)c2c(c1)[C@@H]1C=CC[C@@H]1[C@H](c1ccc(S(=O)(=O)N3CCOCC3)cc1)N2 | 100
7 | COc1ccccc1N1CCN(C(=O)c2ccc3nc(-c4ccco4)c(-c4ccco4)nc3c2)CC1 | 100
8 | COc1cccc(NS(=O)(=O)c2ccc3c(c2)C2C=CCC2C(c2ccc(C(=O)O)cc2)N3)c1 (stereo not drawn) | 50 (inactive)

From PubChem BioAssay AID1218 (NMMLSC, 2008)
